In US11325884B2, “Ketone inhibitors of lysine gingipain” (CORTEXYME, INC., priority 2016, dated 2022):
Where “and” joins values, the source holds several entries; their conditions need not be identical. Equal values may be shown once. Read-outs that look alike come from different tables or passages of the source.

Assays:
lysine gingipain (Kgp) = lysine gingipain (Kgp) (Porphyromonas gingivalis (strain ATCC 33277 / DSM 20709 / CIP 103683 / JCM 12257 / NCTC 11834 / 2561), UniProt B2RLK2); test: Inhibition of lysine gingipain, fluorogenic assay (Z-His-Glu-Lys-MCA); format: biochemical; settings: for selectivity for Kgp over endogenous cathepsins: as compared to reference compound 73
Protocol: The specific assay conditions were as follows. Buffer: pH=7.5, 100 mM Tris-HCl, 75 mM NaCl, 2.5 mM CaCl2, 10 mM cysteine, 1% DMSO after all additions. Protein: 0.1 nM Kgp, isolated from culture of Porphyromonas gingivalis, as described by Pike et al. (J. Biol. Chem. 1994, 269(1), 406), and Potempa and Nguyen (Current Protocols in Protein Science. 2007, 21.20.1-21.20.27). Fluorogenic substrate: 10 μM Z-His-Glu-Lys-MCA. Time=90 minutes. Temperature=37° C.
Further assays to measure the inhibitory activity of compounds of the present invention against Kgp and cathepsins B, H, K, L, and S were conducted as described in Example 66. The capacities of the compounds to inhibit the activity of cathepsins F, V, and Z were also measured.

[1] = Oral pharmacokinetics in CD-1 mice; format: in vivo; settings: male CD-1 mice, p.o. 10 mg/kg; for oral availability / plasma concentrations: as compared to reference compound 73
Kgp = Kgp (Porphyromonas gingivalis (Bacteroides gingivalis), UniProt Q51817); test: Activity probe labeling of Kgp in P. gingivalis-infected Jurkat cells; format: cell-based
Source text: The identity of this labeled protein in P. gingivalis-infected cells was confirmed to be Kgp by Western blot.

[2] = Table 4, read-out: IC50 (nM) Kgp
[3] = Table 5, probe compounds, read-out: Kgp IC50
[4] = Table 3, read-out: IC50 (nM) Kgp

SMILES | IC50 (lysine gingipain (Kgp); [2]) | other results
COC(C)(C)C(=O)N[C@@H](CCCCN)C(=O)COc1c(F)ccc(F)c1F [Compound 47, (S)—N-(7-amino-2-oxo-1-(2,3,6-trifluorophenoxy)heptan-3-yl)-2-methoxy-2-methylpropanamide] |  | selectivity for Kgp over endogenous cathepsins (lysine gingipain (Kgp)): far more selective; concentrations in the brain and cerebrospinal fluid (CSF) [1]: increased; oral availability [1]: improved; plasma concentrations [1]: increased
NCCCCC(NC(=O)c1cccc(F)n1)C(=O)COc1c(F)cccc1F (stereo not drawn) [Compound 28a] | 0.34 nM | 
CN(C)c1ccc(/N=N/c2ccc(C(=O)NCc3cc(F)c(OCC(=O)C(CCCCN)NC(=O)c4cccc(N=[N+]=[N-])c4)c(F)c3)cc2)cc1 (stereo not drawn) [Compound 44a] | 3.04 nM | IC50 (lysine gingipain (Kgp); [3]): 3 nM
NCCCCC(NC(=O)C1CCCC1)C(=O)Cn1cncc(F)c1=O (stereo not drawn) [Compound 41a] | > 100 nM | 
[N-]=[N+]=Nc1cccc(C(=O)NC(CCCCN)C(=O)COc2c(F)cccc2F)c1 (stereo not drawn) [Compound 12a] |  | IC50 (lysine gingipain (Kgp); [4]): 0.08 nM
CC1=CC(C)=[N+]2C1=Cc1ccc(CCC(=O)NCc3cn(-c4cccc(C(=O)NC(CCCCN)C(=O)COc5c(F)cccc5F)c4)nn3)n1[B-]2(F)F (stereo not drawn) [Compound 15a] |  | binding to purified Kgp and to Kgp in infected cells (Kgp; FIG. 6A): irreversibly binds
COC(C)(C)C(=O)NC(CCCCN)C(=O)COC(C(F)(F)F)C(F)(F)F (stereo not drawn) [Compound 69a] | 0.21 nM | 
NCCCCC(NC(=O)C1CCCC1)C(=O)Cn1ccc(=O)nc1 (stereo not drawn) [Compound 40a] | 30.3 nM | 
NCCCCC(NC(=O)c1cccnc1)C(=O)COc1c(F)ccc(F)c1F (stereo not drawn) [Compound 42a] | 0.06 nM | 
NCCCCC(NC(=O)c1cccnc1Br)C(=O)COc1c(F)cccc1F (stereo not drawn) [Compound 34a] | 0.13 nM | 
CN(C)CC(=O)C(CCCCN)NC(=O)C1CCCC1 (stereo not drawn) [Compound 19a] |  | IC50 (lysine gingipain (Kgp); [4]): > 100 nM
NCCCCC(NC(=O)c1ccncc1)C(=O)COc1c(F)ccc(F)c1F (stereo not drawn) [Compound 52a] | 0.06 nM | 
NCCCCC(NC(=O)C1CCCC1)C(=O)COc1cc(F)cc(F)c1F (stereo not drawn) [Compound 4a] |  | IC50 (lysine gingipain (Kgp); [4]): 0.07 nM
NCCCCC(NC(=O)C1CCCC1)C(=O)COc1cc(F)cc(F)c1 (stereo not drawn) [Compound 8a] |  | IC50 (lysine gingipain (Kgp); [4]): 0.34 nM
NCCCC[C@H](NC(=O)C1CCCC1)C(=O)COc1c(F)cccc1F [Compound 2, (S)—N-(7-amino-1-(2,6-difluorophenoxy)-2-oxoheptan-3-yl)cyclopentanecarboxamide] |  | selectivity for Kgp over endogenous cathepsins (lysine gingipain (Kgp)): increased selectivity
NCCCCC(NC(=O)c1cccc(F)c1)C(=O)COc1c(F)cccc1F (stereo not drawn) [Compound 26a] | 0.09 nM | 
NCCCCC(NC(=O)c1ccccc1)C(=O)C(F)F (stereo not drawn) [Compound 37a] | > 100 nM | 
NCCCCC(NC(=O)C1CCCC1)C(=O)COC(C(F)(F)F)C(F)(F)F (stereo not drawn) [Compound 18a] | 0.5 nM | IC50 (lysine gingipain (Kgp); [4]): 0.5 nM
COC(C)(C)C(=O)NC(CCCCN)C(=O)COc1cc(C)nc(C)c1 (stereo not drawn) [Compound 63a] | 0.09 nM | 
NCCCCC(NC(=O)C1CCCC1)C(=O)COCC(F)(F)F (stereo not drawn) [Compound 17a] |  | IC50 (lysine gingipain (Kgp); [4]): > 100 nM

SMILES | IC50 (lysine gingipain (Kgp); [2]) | other results
C[N+](C)(C)c1ccc(C(=O)NC(CCCCN)C(=O)COc2ccon2)cn1 (stereo not drawn) [Compound 61a] | 0.43 nM | 
NCCCCC(NC(=O)C1CCCC1)C(=O)COc1ccon1 (stereo not drawn) [Compound 49a] | 0.23 nM | 
CS(=O)(=O)CC(=O)C(CCCCN)NC(=O)C1CCCC1 (stereo not drawn) [Compound 20a] |  | IC50 (lysine gingipain (Kgp); [4]): > 100 nM
NCCCC[C@H](NC(=O)C1CCCC1)C(=O)COc1c(F)c(F)cc(F)c1F (stereo in doubt) [Compound 73, N-[7-amino-2-oxo-1-(2,3,5,6-tetrafluorophenoxy)heptan-3-yl]cyclopentanecarboxamide, reference compound] | < 0.05 nM | Kgp IC50 values (in words) (lysine gingipain (Kgp)): sub-nanomolar; IC50 (lysine gingipain (Kgp); [4]): ≤ 0.05 nM; IC50 (lysine gingipain (Kgp); [3]): < 0.05 nM
COC(C)(C)C(=O)NC(CCCCN)C(=O)COc1cccnc1 (stereo not drawn) [Compound 64a] | 0.4 nM | 
COC(C)(C)C(=O)NC(CCCCN)C(=O)COc1c(F)cccc1F (stereo not drawn) [Compound 48a] | 0.07 nM | 
CN(C)c1ccc(C(=O)NC(CCCCN)C(=O)COc2ccon2)cn1 (stereo not drawn) [Compound 62a] | 0.14 nM | 
NCCCCC(NC(=O)c1ccc(F)nc1)C(=O)COc1c(F)cccc1F (stereo not drawn) [Compound 29a] | 0.31 nM | 
NCCCC[C@H](NC(=O)C1CCCC1)C(=O)COc1ccon1 [Compound 49, (S)—N-(7-amino-1-(isoxazol-3-yloxy)-2-oxoheptan-3-yl)cyclopentanecarboxamide] |  | concentrations in the brain and cerebrospinal fluid (CSF) [1]: reduced
NCCCCC(NC(=O)C1CCCC1)C(=O)COc1cc(F)ccc1F (stereo not drawn) [Compound 6a] |  | IC50 (lysine gingipain (Kgp); [4]): 0.19 nM
NCCCCC(NC(=O)c1ccccn1)C(=O)COc1c(F)ccc(F)c1F (stereo not drawn) [Compound 50a] | 0.09 nM | 
NCCCCC(NC(=O)c1ccc(F)nc1)C(=O)COc1ccon1 (stereo not drawn) [Compound 55a] | 0.12 nM | 
NCCCC[C@H](NC(=O)C1CCCC1)C(=O)COC(C(F)(F)F)C(F)(F)F [Compound 18, (S)—N-(7-amino-1-((1,1,1,3,3,3-hexafluoropropan-2-yl)oxy)-2-oxoheptan-3-yl)cyclopentanecarboxamide] |  | selectivity for Kgp over endogenous cathepsins (lysine gingipain (Kgp)): far more selective
CSCC(=O)C(CCCCN)NC(=O)C1CCCC1 (stereo not drawn) [Compound 16a] |  | IC50 (lysine gingipain (Kgp); [4]): > 100 nM
COC(C)(C)C(=O)N[C@@H](CCCCN)C(=O)COC(C(F)(F)F)C(F)(F)F [Compound 69, (S)—N-(7-amino-1-((1,1,1,3,3,3-hexafluoropropan-2-yl)oxy)-2-oxoheptan-3-yl)-2-methoxy-2-methylpropanamide] |  | selectivity for Kgp over endogenous cathepsins (lysine gingipain (Kgp)): far more selective; concentrations in the brain and cerebrospinal fluid (CSF) [1]: increased; oral availability [1]: improved; plasma concentrations [1]: increased
[N-]=[N+]=Nc1cccc(C(=O)NC(CCCCN)C(=O)COc2c(F)cccc2F)c1 (stereo not drawn) [Compound 33a] | 0.08 nM | 
NCCCCC(NC(=O)c1cccnc1F)C(=O)COc1ccon1 (stereo not drawn) [Compound 56a] | 0.1 nM | 
NCCCC[C@H](NC(=O)C1CCCC1)C(=O)COc1cccc(F)c1 [Compound 7, (S)—N-(7-amino-1-(3-fluorophenoxy)-2-oxoheptan-3-yl)cyclopentanecarboxamide] |  | selectivity for Kgp over endogenous cathepsins (lysine gingipain (Kgp)): increased selectivity
NCCCC[C@H](NC(=O)c1ccc(F)nc1)C(=O)COc1ccon1 [Compound 55, (S)—N-(7-amino-1-(isoxazol-3-yloxy)-2-oxoheptan-3-yl)-6-fluoronicotinamide] |  | selectivity for Kgp over endogenous cathepsins (lysine gingipain (Kgp)): far more selective
CS(C)(=O)=CC(=O)C(CCCCN)NC(=O)C1CCCC1 (stereo not drawn) [Compound 58a] | 4.66 nM | 

SMILES | IC50 (lysine gingipain (Kgp); [2]) | other results
NCCCCC(NC(=O)c1cccc(OCCCF)c1)C(=O)COc1c(F)cccc1F (stereo not drawn) [Compound 30a] | 0.21 nM | 
COC(C)(C)C(=O)NC(CCCCN)C(=O)COc1cnc(C)nc1 (stereo not drawn) [Compound 65a] | 0.16 nM | 
NCCCCC(NC(=O)C1CCCC1)C(=O)COc1c(F)cccc1F (stereo not drawn) [Compound 2a] | < 0.05 nM | IC50 (lysine gingipain (Kgp); [4]): ≤ 0.05 nM and 0.11 nM
NCCCC[C@H](NC(=O)c1ccccn1)C(=O)COc1c(F)ccc(F)c1F [Compound 50, (S)—N-(7-amino-2-oxo-1-(2,3,6-trifluorophenoxy)heptan-3-yl)picolinamide] |  | selectivity for Kgp over endogenous cathepsins (lysine gingipain (Kgp)): increased selectivity
COC(C)(C)C(=O)NC(CCCCN)C(=O)COc1ccon1 (stereo not drawn) [Compound 57a] | 0.09 nM | 
NCCCCC(NC(=O)c1ccc(F)cc1)C(=O)COc1c(F)cccc1F (stereo not drawn) [Compound 35a] | 0.1 nM | 
NCCCC[C@@H](NC(=O)C1CCCC1)C(=O)COc1c(F)c(F)cc(F)c1F [Compound 74, reference compound] |  | IC50 (lysine gingipain (Kgp); [4]): ≤ 0.05 nM
NCCCCC(NC(=O)c1cccnc1F)C(=O)COc1c(F)cccc1F (stereo not drawn) [Compound 32a] | 0.08 nM | 
NCCCCC(NC(=O)C1CCCC1)C(=O)COc1ccccc1F (stereo not drawn) [Compound 3a] |  | IC50 (lysine gingipain (Kgp); [4]): 0.64 nM
NCCCCC(NC(=O)C1CCCC1)C(=O)COc1cccc(F)c1 (stereo not drawn) [Compound 7a] | 1.3 nM | IC50 (lysine gingipain (Kgp); [4]): 1.3 nM
NCCCCC(NC(=O)c1cccc(OCCF)c1)C(=O)COc1c(F)cccc1F (stereo not drawn) [Compound 27a] | 0.27 nM | 
C[N+]1=C(/C=C/C=C/C=C2\N(CCCCCC(=O)NCc3cn(-c4cccc(C(=O)N[C@@H](CCCCN)C(=O)COc5c(F)cccc5F)c4)nn3)c3ccc(S(=O)(=O)O)cc3C2(C)C)C(C)(C)c2cc(S(=O)(=O)O)ccc21 [Compound 70] |  | effect of preincubation on binding of probe 15a to Kgp (Kgp; infected Jurkat cells, preincubation 1 hour): blocked the binding
NCCCCC(NC(=O)C1CCCC1)C(=O)Cn1cnccc1=O (stereo not drawn) [Compound 39a] | > 100 nM | 
COC(C)(C)C(=O)N[C@@H](CCCCN)C(=O)COc1c(F)cccc1F [Compound 48, (S)—N-(7-amino-1-(2,6-difluorophenoxy)-2-oxoheptan-3-yl)-2-methoxy-2-methylpropanamide] |  | oral availability [1]: improved; plasma concentrations [1]: increased
COC(C)(C)C(=O)NC(CCCCN)C(=O)COc1c(F)ccc(F)c1F (stereo not drawn) [Compound 47a] | 0.06 nM | 
NCCCCC(NC(=O)C1CCCC1)C(=O)COc1cccc(F)c1F (stereo not drawn) [Compound 5a] |  | IC50 (lysine gingipain (Kgp); [4]): 0.15 nM
NCCCCC(NC(=O)c1ccnc(F)c1)C(=O)COc1c(F)cccc1F (stereo not drawn) [Compound 31a] | 0.15 nM | 
NCCCCC(NC(=O)c1cccnc1)C(=O)COc1c(F)cccc1F (stereo not drawn) [Compound 43a] | 0.09 nM | 
